Reference: the NIST ThermoML archive (doi:10.1016/j.jct.2006.01.007)
± gives the expanded uncertainty stated by the source.

Experiment: xn = mol fraction of the nth substance listed
Conditions: 101 kPa, Liquid; for speed of sound: Sing-around technique in a fixed-path interferometer

CC(C)(C)O [2-methylpropan-2-ol] + O
x2 = 0.9615
Conditions	mass density [kg/m3]	speed of sound [m/s]
288.15 K	980.2 ± 0.5	1613.7 ± 0.79
293.15 K	978.4 ± 0.5	1612.4 ± 0.79
298.15 K	976.6 ± 0.5	1610 ± 0.79
303.15 K	973.6 ± 0.5	1606.5 ± 0.79
308.15 K	971.5 ± 0.5	1602.5 ± 0.79
313.15 K	968.8 ± 0.5	1597 ± 0.79

C[S+](C)[O-] [dimethyl sulfoxide] + O
x1 = 0.0385
Conditions	mass density [kg/m3]	speed of sound [m/s]
288.15 K	1019.8 ± 0.5	1555.2 ± 0.78
293.15 K	1018.1 ± 0.5	1562.5 ± 0.78
298.15 K	1016.2 ± 0.5	1568.5 ± 0.78
303.15 K	1014.4 ± 0.5	1573.4 ± 0.78
308.15 K	1012.3 ± 0.5	1577 ± 0.78
313.15 K	1010.2 ± 0.5	1579.4 ± 0.78
